Data from patent US20220411525A1, “BCMA AS A TARGET FOR T CELL REDIRECTING ANTIBODIES IN B CELL LYMPHOMAS” (Janssen Pharmaceutica NV, priority 2021, published 2022).

Experiments:
[1] = tested on: B cell malignancy cell lines; test: Soluble BCMA ELISA in supernatants of cell lines; format: cell-based; conditions: 100 nM, 24 or 48h, both time points
Protocol: To evaluate whether other malignancies besides multiple myeloma (MM) can potentially be targeted by BCMA directed immunotherapy, B cell malignancy cell lines were assessed for BCMA expression by flow cytometry. […] Per FIG. 1A, B cell malignancy cell lines were cultured and basal levels of BCMA were assessed by flow cytometry and compared to isotype controls. (n=3-8). Dotted line indicates no increase compared to isotype control. In accordance with FIG. 1B, cell lines were treated for 24-48h with 100nM γ-secretase inhibitor or with medium control and BCMA was assessed by flow cytometry. Values are represented as fold increase compared to 0 nM γ-secretase inhibitor. (n=3-12) Dotted line indicates no increase compared to 0 nM γ-secretase inhibitor. FIG. 1C represents the results of an asssessment of soluble BCMA by ELISA in supernatants of B cell malignancy cell lines after treatment with 0 nM or 100 nM γ-secretase inhibitor for 24-48 h. (n=2). […] The P value was calculated by paired t test of Wilcoxon test (FIG. 1A-1B) or simple linear regression (FIG. 1E). […]
Since BCMA is known to be cleaved off by γ-secretase, it was evaluated whether inhibition of this enzyme would lead to enhanced BCMA levels on these B cell lines. […]
sBCMA ELISA. […] After 24 or 48 h supernatants were harvested and stored at −20° C. soluble BCMA (sBCMA) in supernatants were measured by ELISA using antibody pairs for BCMA.

[2] = tested on: primary CLL cells; test: BCMA level by flow cytometry on primary CLL cells after γ-secretase inhibition; format: cell-based, human; conditions: 100 nM
Protocol: Primary CLL samples were stained for BCMA expression by flow cytometry and compared to isotype controls. […] As provided in FIG. 2A, CLL cells were cultured and basal levels of BCMA were assessed by flow cytometry and compared to isotype controls. (n=25). For FIG. 2B, CLL cells were treated for 24 or 48h with 0nM or 100 nM γ-secretase inhibitor and BCMA was assessed by flow cytometry. Values are represented as fold increase compared to medium control. (n=12-28). FIG. 2C provides basal levels of BCMA compared to isotype control among CLL patients with mutated or unmutated IgVH. (n=4-10). […] (n=4-12) The P value was calculated by Wilcoxon test (FIGS. 2A-2B), Mann Whitney test (FIGS. 2B, 2C, 2D) or paired t test (FIGS. 2E, F). […]
Flow cytometry. […] After antibody staining, samples were washed using PBA and acquired on BD FACS Canto or LSR Fortessa flow cytometer and analysed with FlowJo v10. To quantify number of cells using flow cytometry, 123count eBeads™ Counting Beads (Thermo Fisher Scientific) according to manufacturer's instructions. BCMA molecules per cell were determined by usage of PE Phycoerythrin Fluorescence Quantitation Kit (BD Biosciences).
BCMA characterization by flow cytometry and quantitative polymerase chain reaction. […] After 24 or 48 h BCMA was detected by flow cytometry as described above. Relative expression was calculated compared to isotype controls. […]

**Q.** For `C[C@H](NC(=O)[C@@H](O)c1cc(F)cc(F)c1)C(=O)N[C@@H]1C(=O)N(C)c2ccccc2-c2ccccc21` [Ly411575], which “soluble BCMA (sBCMA) levels in supernatants” value [1] is on record?
**A.** strongly reduced

**Q.** And the “BCMA level on CLL cells” value ([2]; 24 h)?
**A.** small but significant upregulation of BCMA

**Q.** What about the “BCMA level on CLL cells” value ([2]; 48 h, compared to 24 h) of the same compound?
**A.** further enhanced
